Series [1] deals with HepG2. The series is described as follows: Antiproliferative activity against ATM proficient human HepG2 cells assessed as reduction in cell viability incubated for 72 hrs by MTT assay. The class given is functional, cell-based. As to conditions: dose 0.001-100 µM, DDE = dose-dependent effect. Background: Tetrazolium dyes change colour on reduction, which living cells bring about.

Series [2] addresses T1, Serine/threonine-protein kinase ATR (Homo sapiens, UniProt Q13535). Briefly: In vivo inhibition of ATR in human LoVo cells xenografted in NOD/SCID mouse assessed as inhibition of ATR phosphorylation at 50 to 100 mg/kg, po administered twice a day for 30 days by Western blot analysis. As to conditions: dose 50-100 mg/kg, time 30.0 day. (In general: In xenograft studies the graft and the host belong to different species.)

For series [3], the target named is T1, Serine/threonine-protein kinase ATR. Briefly: Inhibition of ATR signalling in ATM-deficient human LoVo cells assessed as inhibition of Chk1 phosphorylation incubated for 1 hr followed by hydroxyurea addition measured after 4 hrs by Western blot analysis. In kind it is cell-based. As to conditions: dose <= 3.0 µM, time 5.0 hrs, DDE = dose-dependent effect. (In western blotting, separated proteins are transferred to a membrane and probed.)

The subject of series [4] is HT-29. Briefly: Induction of apoptosis in human HT-29 cells assessed as viable cells at 3 uM measured after 48 hrs in presence of AZD1390 by Annexin V-FITC/Propidium iodide staining based flow cytometry analysis (reference value: 95.33%). In kind it is functional. Particulars: read-out: Activity.
The subject of series [5] is HT-29. Briefly: Induction of apoptosis in human HT-29 cells assessed as early apoptotic cells at 0.3 uM measured after 48 hrs in presence of AZD1390 by Annexin V-FITC/Propidium iodide staining based flow cytometry analysis (reference value: 3.81%). In kind it is functional.
The subject of series [6] is HT-29. The series is described as follows: Antiproliferative activity against human HT-29 cells assessed as reduction in cell viability incubated for 72 hrs in presence of AZD1390 by MTT assay. The class given is functional, cell-based. As to conditions: HT-29, 72 h.
Series [7] addresses T1, Serine/threonine-protein kinase ATR. The series is described as follows: Inhibition of ATR signalling in ATM-deficient human LoVo cells assessed as inhibition of ATR phosphorylation incubated for 1 hr followed by hydroxyurea addition measured after 4 hrs by Western blot analysis. In kind it is cell-based. Particulars: dose <= 3.0 µM, time 5.0 hrs, DDE = dose-dependent effect.

Series [8] concerns HT-29. The series is described as follows: Induction of apoptosis in human HT-29 cells assessed as necrotic cells at 1 uM measured after 48 hrs in presence of AZD1390 by Annexin V-FITC/Propidium iodide staining based flow cytometry analysis (reference value: 0.23%). In kind it is functional.
For series [9], the system named is A549. The series is described as follows: Antiproliferative activity against ATM proficient human A549 cells assessed as reduction in cell viability incubated for 72 hrs by MTT assay. The class given is functional, cell-based. Particulars: dose 0.001-100 µM, DDE = dose-dependent effect.
In series [10] the test system is HT-29. The series is described as follows: Induction of apoptosis in human HT-29 cells assessed as viable cells at 3 uM measured after 48 hrs by Annexin V-FITC/Propidium iodide staining based flow cytometry analysis (reference value: 97.01%). As to conditions: read-out: Activity. In kind it is functional.
The nature of series [11]: Cmax in Sprague-Dawley rat at 5 mg/kg, iv measured at 0.083 to 24 hrs by LC-MS/MS method. As to conditions: in vivo. Also noted: dose 5 mg/kg, time 0.083-24 hrs, route iv. The class given is ADME, organism-based.
For series [12], the system named is LoVo. Briefly: Induction of apoptosis in human LoVo cells deficient in ATM assessed as early apoptotic cells at 3 uM measured after 24 hrs by Annexin V-FITC/Propidium iodide staining based flow cytometry analysis (reference value: 4.20%). In kind it is functional.
Series [13] in a line: Half life in Sprague-Dawley rat at 10 mg/kg, po measured at 0.083 to 24 hrs by LC-MS/MS method. The class given is ADME, organism-based. Particulars: in vivo, time 0.083-24 hrs.
Series [14] relates to HT-29. The series is described as follows: Induction of apoptosis in human HT-29 cells assessed as early apoptotic cells at 1 uM measured after 48 hrs in presence of AZD1390 by Annexin V-FITC/Propidium iodide staining based flow cytometry analysis (reference value: 3.81%). The class given is functional.
Series [15] can be described thus: Toxicity in NOD/SCID mouse xenografted with human LoVo cells assessed as body weight loss at 50 to 100 mg/kg, po administered bid for 30 days. The class given is organism-based. As to conditions: in vivo, 720 h, dose 50-100 mg/kg, time 30 day.
Series [16] relates to HT-29. Briefly: Induction of apoptosis in human HT-29 cells assessed as viable cells at 0.3 uM measured after 48 hrs in presence of AZD1390 by Annexin V-FITC/Propidium iodide staining based flow cytometry analysis (reference value: 95.33%). The class given is functional. As to conditions: read-out: Activity.
The target in series [17] is T1, Serine/threonine-protein kinase ATR. The series is described as follows: Inhibition of ATR signalling in ATM-deficient human LoVo cells assessed as change in expression of Chk1 at up to 3 uM incubated for 1 hr followed by hydroxyurea addition measured after 4 hrs by Western blot analysis. The class given is cell-based. As to conditions: time 5.0 hrs.
For series [18], the system named is HT-29. The series is described as follows: Induction of apoptosis in human HT-29 cells assessed as late apoptotic cells at 1 uM measured after 48 hrs in presence of AZD1390 by Annexin V-FITC/Propidium iodide staining based flow cytometry analysis (reference value: 0.63%). In kind it is functional.
Series [19] deals with NCI-H23. Briefly: Antiproliferative activity against ATM-deficient human NCI-H23 cells assessed as reduction in cell viability incubated for 72 hrs by MTT assay. The class given is functional, cell-based. Particulars: dose 0.001-100 µM, DDE = dose-dependent effect.

One may read the IC50 as the concentration at which inhibition is half-maximal. What is called Cmax is the maximum level reached in the sampled fluid or tissue. Usually half-life stands for the time needed for the level to fall by half in the phase considered. A low value points to fast loss.

Each structure is given as a SMILES string. The source made the active and inactive calls.

T1 sequence (Q13535 whole entry, looked up): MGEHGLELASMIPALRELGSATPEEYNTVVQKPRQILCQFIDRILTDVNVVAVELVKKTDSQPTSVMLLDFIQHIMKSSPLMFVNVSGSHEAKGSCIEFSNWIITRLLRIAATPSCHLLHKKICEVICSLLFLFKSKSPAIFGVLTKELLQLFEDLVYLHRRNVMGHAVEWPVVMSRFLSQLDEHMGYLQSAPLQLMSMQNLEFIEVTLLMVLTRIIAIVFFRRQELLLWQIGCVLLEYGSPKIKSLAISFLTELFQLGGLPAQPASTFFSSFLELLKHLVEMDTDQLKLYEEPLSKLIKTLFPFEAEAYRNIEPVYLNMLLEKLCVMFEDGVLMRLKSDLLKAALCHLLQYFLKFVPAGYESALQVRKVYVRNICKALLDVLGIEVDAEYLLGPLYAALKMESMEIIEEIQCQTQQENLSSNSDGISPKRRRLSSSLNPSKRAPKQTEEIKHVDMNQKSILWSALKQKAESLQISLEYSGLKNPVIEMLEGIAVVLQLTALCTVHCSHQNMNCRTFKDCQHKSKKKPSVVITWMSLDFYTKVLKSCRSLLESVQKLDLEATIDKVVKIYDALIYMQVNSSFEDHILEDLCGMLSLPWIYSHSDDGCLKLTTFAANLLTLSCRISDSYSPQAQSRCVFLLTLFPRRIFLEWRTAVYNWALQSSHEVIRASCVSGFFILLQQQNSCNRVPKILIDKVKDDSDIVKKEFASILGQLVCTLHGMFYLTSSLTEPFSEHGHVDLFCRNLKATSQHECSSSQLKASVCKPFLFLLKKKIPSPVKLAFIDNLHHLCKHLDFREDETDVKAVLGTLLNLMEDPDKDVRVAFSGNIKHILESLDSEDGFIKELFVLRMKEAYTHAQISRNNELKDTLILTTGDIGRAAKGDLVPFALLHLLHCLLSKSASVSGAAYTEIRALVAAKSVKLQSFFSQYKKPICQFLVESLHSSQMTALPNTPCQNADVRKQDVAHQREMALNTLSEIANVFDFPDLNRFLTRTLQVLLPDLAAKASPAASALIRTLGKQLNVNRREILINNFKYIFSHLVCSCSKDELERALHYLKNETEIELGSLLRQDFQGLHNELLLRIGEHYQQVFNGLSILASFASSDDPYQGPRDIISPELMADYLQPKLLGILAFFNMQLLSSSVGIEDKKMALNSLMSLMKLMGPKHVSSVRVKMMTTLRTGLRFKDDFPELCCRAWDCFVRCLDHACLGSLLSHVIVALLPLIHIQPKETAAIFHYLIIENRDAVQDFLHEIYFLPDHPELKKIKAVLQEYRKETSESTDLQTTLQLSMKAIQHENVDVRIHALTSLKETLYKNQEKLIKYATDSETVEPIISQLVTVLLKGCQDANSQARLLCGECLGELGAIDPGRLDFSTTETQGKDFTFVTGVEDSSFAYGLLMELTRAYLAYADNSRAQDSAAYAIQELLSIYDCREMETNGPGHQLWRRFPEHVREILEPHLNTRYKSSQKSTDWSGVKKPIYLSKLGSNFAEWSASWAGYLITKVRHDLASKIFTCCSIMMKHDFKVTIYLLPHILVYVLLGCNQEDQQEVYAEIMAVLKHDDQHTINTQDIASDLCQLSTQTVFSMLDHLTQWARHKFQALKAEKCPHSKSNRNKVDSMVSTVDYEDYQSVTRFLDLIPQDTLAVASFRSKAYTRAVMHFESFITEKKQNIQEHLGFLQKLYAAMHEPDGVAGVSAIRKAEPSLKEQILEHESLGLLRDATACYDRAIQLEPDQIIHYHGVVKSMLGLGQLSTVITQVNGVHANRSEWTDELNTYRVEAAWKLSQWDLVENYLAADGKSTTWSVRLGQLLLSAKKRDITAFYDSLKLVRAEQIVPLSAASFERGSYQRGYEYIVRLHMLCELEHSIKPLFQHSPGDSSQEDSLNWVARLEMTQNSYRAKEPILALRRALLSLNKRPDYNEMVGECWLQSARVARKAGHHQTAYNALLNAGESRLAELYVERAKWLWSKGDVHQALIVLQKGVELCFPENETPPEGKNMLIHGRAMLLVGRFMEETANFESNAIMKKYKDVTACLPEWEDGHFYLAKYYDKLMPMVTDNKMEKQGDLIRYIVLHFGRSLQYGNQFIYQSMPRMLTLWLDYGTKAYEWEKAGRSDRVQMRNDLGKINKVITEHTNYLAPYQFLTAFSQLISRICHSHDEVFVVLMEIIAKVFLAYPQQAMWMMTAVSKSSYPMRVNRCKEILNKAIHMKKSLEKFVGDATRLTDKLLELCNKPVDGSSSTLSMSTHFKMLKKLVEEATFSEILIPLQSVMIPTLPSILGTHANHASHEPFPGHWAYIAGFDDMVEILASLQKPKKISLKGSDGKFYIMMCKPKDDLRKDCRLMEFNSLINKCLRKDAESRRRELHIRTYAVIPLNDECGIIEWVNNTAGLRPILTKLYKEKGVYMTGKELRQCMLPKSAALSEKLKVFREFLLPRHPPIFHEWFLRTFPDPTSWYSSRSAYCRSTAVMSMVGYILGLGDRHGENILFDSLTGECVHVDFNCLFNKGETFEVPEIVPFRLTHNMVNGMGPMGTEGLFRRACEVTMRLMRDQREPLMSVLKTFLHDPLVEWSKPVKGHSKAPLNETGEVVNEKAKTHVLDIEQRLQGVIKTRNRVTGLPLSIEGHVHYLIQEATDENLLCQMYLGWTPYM

In the case of `C[C@@H]1COCCN1c1nc(-c2cccc3[nH]ccc23)nc2ccc(-c3ccnn3C)cc12`, the Activity result in series [1] was “Dde”; in series [5] it was 7.23%; in series [8], 2.1%; in series [9], “Dde”; in series [12] it was 27.07%; in series [14], 7.45%. Further, the figures for the Activity result in [15], in series [18] and in [19] were “Non-Toxic”, 9.54% and “Dde”, respectively. In addition, the result in [2] was Active. Further, the inhibition entry in [3] and in [7] was “Dde” in each case. Moreover, the results for the viability at 3 µM in series [4] and in series [10] were 58% and 93.1%, respectively. The half-inhibitory concentration (IC50) in series [6] came out at 439 nM. The peak level in series [11] (Cmax) was 3400 ng/mL. Further, the half-life in [13] is 1.14 h. For the same compound, the viability at 0.3 µM in series [16] was 79%. Besides, the inhibition result in series [17] is “Active”.

The values are drawn from ChEMBL document CHEMBL5154749 (Eur J Med Chem, 2022).
